Reference: patent publication US11421010B2, “T cells expressing membrane-anchored IL-12 for the treatment of cancer” (Board of Regents, The University of Texas System, priority 2016, dated 2022)

Columns and labels:
Lck/JAK/STAT3 signaling [1] = experiment: NKG2D expression with CD80-Fc plus inhibitors of STAT3 activation, mouse CD8^+ T cells; type: cell-based; conditions: 24 h
Protocol: (§1) FIGS. 24A-24B: Blockade of Lck/JAK/STAT3 signaling abolishes CD28 activation-mediated induction of NKG2D expression on mouse and human CD8^+ T cells. (A, B) Mouse (A) and human (B) CD8^+ T cells were stimulated with anti-CD3 microbeads and treated with control Fc or CD80-FC in the presence or absence of the pharmacologic inhibitor JSI-124, PP2, or AG-490 for 24 h. The CD80+ vehicle has the highest expression of NKG2D. NKG2D expression on the surface of CD8^+ T cells was measured using flow cytometry. The bar graphs show the median (±SEM) MFI of NKG2D (n=3). The data are representative of three repeated experiments.
(§2) If NKG2D expression is induced by CD80-Fc-based treatment via pSTAT3, inhibition of any upstream activators of STAT3 should abrogate NKG2D induction. A time course study was performed to assess the toxicity of the pharmacologic inhibitors to mouse and human CD8^+ T cells. […] Therefore, to test the hypothesis, mouse and human CD8^+ T cells were enriched and treated with control Fc, CD80-Fc plus control vehicle, or CD80-Fc plus inhibitors of STAT3 activation, including PP2, AG490, and JSI-124, for 24 h.

STAT3 [2] = experiment: Immunoblot of pSTAT3 with pharmacologic inhibitors, human CD8^+ T cells; type: cell-based; conditions: PP2 (1 nM); 1 h
Protocol: (§3) FIG. 23: Elevated STAT3 phosphorylation resulting from CD80 binding-mediated CD28 activation via the tyrosine kinase Lck/JAK/STAT3 signaling pathway. The effect of CD28 activation and treatment with pharmacologic inhibitors on the expression of pSTAT, total STAT, and b-actin according to immunoblot assay. Mouse and human CD8^+ T cells were stimulated with anti-CD3 microbeads and treated with ctrl Fc or CD80-Fc in the presence or absence of the pharmacologic inhibitor JSI-124 […], PP2 (1 nM), or AG-490 ([…]) for 24 h. Vehicle control is included. The intensity quantification shown ([…]/intensity of β-actin) represents the mean intensity from three repeated experiments.
(§4) Because NKG2D expression on NK cells is regulated by pSTAT3, the next question was whether pSTAT3 expression is induced in CD8^+ T cells by activation of CD28. To address this question, the pSTAT3 expression was measured in both mouse and human CD8^+ T cells after incubation with control IgG or CD80-Fc for 15 and 30 min, as well as 1 and 2 h via intracellular flow cytometric staining. […] Given that CD28 activation in CD8^+ T cells results in STAT3 phosphorylation, it was sought to determine how CD28 activates JAK/STAT3 signaling in CD8^+ T cells. In these cells, the co-stimulatory receptor CD28 strengthens TCR signaling via sustained activation of the tyrosine kinase Lck which in turn recruits and activates ZAP70. […] Thus a pharmacologic model was established to determine whether Lck/ZAP70, as an upstream kinase cascade, activates STAT3 in CD8^+ T cells. Mouse and human CD8^+ T cells were enriched (FIG. 29) and stimulated with anti-CD3 microbeads and incubated with control IgG or CD80-Fc in the presence or absence of the pharmacologic inhibitor PP2, AG-490, or JSI-124 for 1 h. PP2 was employed because it is a specific Src-family kinase inhibitor sensitive to blockade of Lck activation. Also, AG-490 can inhibit activation of JAK/STAT3 signaling. […] To validate the crucial role of pSTAT3, the expression of pSTAT1 and pSTAT5 was also assessed. […]

Lck/JAK/STAT3 signaling [3] = experiment: NKG2D expression with CD80-Fc plus inhibitors of STAT3 activation, human CD8^+ T cells; type: cell-based; conditions: 24 h
Protocol: as §1, §2

STAT3 [4] = experiment: Immunoblot of pSTAT3 with pharmacologic inhibitors, mouse CD8^+ T cells; type: cell-based; conditions: PP2 (1 nM); 1 h
Protocol: as §3, §4

human CD8^+ T cells = experiment: CD8^+ T cell viability after JSI-124 (7-AAD), human; type: cell-based; conditions: 48 h, JSI-124 0.1 μM, versus vehicle control
Protocol: (§5) FIGS. 30A-30B: CD8^+ T cell viability after JSI-124 treatment. Freshly enriched mouse (A) and human (B) CD8^+ T cells were treated with vehicle control or JSI-124 (0.1 μM) for 1, 2, 3, and 4 days. Cell viability was assessed after 7-AAD staining via flow cytometry.
as §2

[5] = Degranulation assay (CD107a), human CD8^+ T cells exposed to K562 cells; type: cell-based; conditions: 24 h treatment
Protocol: (§6) FIGS. 25A-25D: Augmentation of CD8^+ T-cell antitumor cytolytic activity by treatment with CD80-Fc. (A-C) Induction of antitumor cytolytic activity by mouse CD8^+ T cells after exposure to Rae-1^+ LLC cells. Splenocytes were collected from LLC-bearing mice on day 14 after tumor-cell inoculation. CD8^+ T cells were isolated from splenocytes and treated with control Fc or CD80-Fc in the presence or absence of an anti-NKG2D antibody or JSI-124 for 24 h. (A) CD8^+ T cells were co-incubated with CFSE-labeled LLC cells at a ratio of 25:1 (E:T) for 5 h. The cell culture medium was subjected to ELISA analysis of perforin. The bar graphs show the median (±SEM) normalized concentration of perforin (n=3). (B) Flow cytometry analysis of NKG2D ligand Rae-1 expression on LLC tumor cells. (C) CD8^+ T cells were co-incubated with CFSE-labeled LLC cells at ratios of 5:1, 10:1, and 25:1 (E:T) for 5 h. After incubation, the cells were stained with PI (1 mg/mL). […] Survival of the target cells was measured as the percentage of normalized target cells that remained after incubation with CD8^+ T cells. […]
(§7) In a similar manner, the cytolytic activity of human CD8^+ T cells was assessed in terms of their degranulation upon CD28 activation. The ability of CD8^+ T cells to undergo degranulation was evaluated in response to exposure to target tumor cells by the induction of cell surface marker CD107a. […]

K562 cells = experiment: as above; type: cell-based; conditions: after exposure to target cells, ratio 1:1, 4 h
Protocol: as §6, §7

mouse CD8^+ T cells = experiment: CD8^+ T cell viability after JSI-124 (7-AAD), mouse; type: cell-based; conditions: 48 h, JSI-124 0.1 μM, versus vehicle control
Protocol: as §5, §2

LLC cells = experiment: Cytotoxic T-lymphocyte assay against CFSE-labeled LLC cells; type: cell-based, mouse; conditions: E:T 5:1, 10:1, 25:1, 5 h
Protocol: as §6, with “h.” for “h. After incubation, the cells were stained with PI (1 mg/mL).”
Because increased perforin expression by immune cells often indicates enhanced antitumor cytolytic activity, the cytotoxic T-lymphocyte activity of mouse CD8^+ T cells was measured after CD80-Fc-based treatment. […] The survival of target cells was determined as the percentage of normalized target cells that remained after incubation with CD8^+ T cells. […]

Row | SMILES | NKG2D expression on CD8^+ T cells (Lck/JAK/STAT3 signaling [1]) | phosphorylation of STAT3 in response to CD80-Fc (STAT3 [2]) | NKG2D expression on CD8^+ T cells (Lck/JAK/STAT3 signaling [3]) | phosphorylation of STAT3 in response to CD80-Fc (STAT3 [4]) | cell viability (human CD8^+ T cells) | NKG2D expression [5] | degranulation (CD107a) (K562 cells) | cell viability (mouse CD8^+ T cells) | cytolytic activity against LLC cells (LLC cells)
1 | N#C/C(=C/c1ccc(O)c(O)c1)C(=O)NCc1ccccc1 [AG-490] | dramatic decreases | completed abolished | dramatic decreases | completed abolished | – | – | – | – | –
2 | CC(C)(O)/C=C/C(=O)[C@](C)(O)[C@H]1[C@H](O)C[C@@]2(C)[C@@H]3CC=C4[C@@H](C=C(O)C(=O)C4(C)C)[C@]3(C)C(=O)C[C@]12C [JSI-124] | dramatic decreases | completed abolished | dramatic decreases | completed abolished | markedly decreased | abolished NKG2D expression | reduced degranulation | markedly decreased | impaired the cytolytic activity
3 | CC(C)(C)n1nc(-c2ccc(Cl)cc2)c2c(N)ncnc21 [PP2] | dramatic decreases | completed abolished | dramatic decreases | completed abolished | – | – | – | – | –
